In US20090156577A1, “7-AMINO ALKYLIDENYL-HETEROCYCLIC QUINOLONES AND NAPHTHYRIDONES” (priority 2004, published 2009):
In brackets after ≈: the same amount, converted by molar mass. Counter-ions that a name gives are not always drawn. Like-named read-outs stand apart in the source and are kept apart here.

Test system: pathogenic bacteria
Assay: MIC by microdilution broth method (NCCLS M7-A4), in vitro antibacterial activity
Format: cell-based
Procedure, shortened: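 MIC read after 35 °C incubation for 16–20 h relative to drug-free growth wells. Cation-adjusted Mueller-Hinton broth with two-fold compound dilutions, organisms at roughly 5×10^4 CFU/well final. Method follows NCCLS document M7-A4.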

[1] = Staphylococcus aureus, Organism A: Staphylococcus aureus OC4172, read-out: MIC
[2] = Streptococcus pneumoniae, ATCC49619, Organism E: Streptococcus pneumoniae ATCC 49619, read-out: MIC
[3] = Streptococcus pneumoniae, Organism B: fluoroquinolone-resistant clinical isolate of Streptococcus pneumoniae (QRDR amino acid substitutions)
[4] = Streptococcus pneumoniae, Organism C: fluoroquinolone-resistant clinical isolate of Streptococcus pneumoniae (QRDR amino acid substitutions)
[5] = Streptococcus pneumoniae, Organism D: fluoroquinolone-resistant clinical isolate of Streptococcus pneumoniae (QRDR amino acid substitutions)
[6] = Organism A: Staphylococcus aureus OC4172
[7] = Organism C: fluoroquinolone-resistant clinical isolate of Streptococcus pneumoniae (QRDR amino acid substitutions)
[8] = Organism E: Streptococcus pneumoniae ATCC 49619

Structure (SMILES) | MIC [1] [µg/mL] | MIC [2] [µg/mL] | MIC [3] [µg/mL] | MIC [4] [µg/mL] | MIC [5] [µg/mL] | MIC [6] [µg/mL] | MIC [7] [µg/mL] | MIC [8] [µg/mL] | MIC (Organism B: fluoroquinolone-resistant clinical isolate of Streptococcus pneumoniae (QRDR amino acid substitutions)) [µg/mL] | MIC (Organism D: fluoroquinolone-resistant clinical isolate of Streptococcus pneumoniae (QRDR amino acid substitutions)) [µg/mL] | MIC (Staphylococcus aureus, Organism A: Staphylococcus aureus OC4172) [µg/mL] | MIC (Streptococcus pneumoniae, ATCC49619, Organism E: Streptococcus pneumoniae ATCC 49619) [µg/mL]
NC/C(Cl)=C1/CCCN(c2nc3c(cc2F)c(=O)c(C(=O)O)cn3C2CC2)CC1 [Compound 379, (E)-7-[4-(2-Amino-1-chloro-ethylidene)-azepan-1-yl]-1-cyclopropyl-6-fluoro-4-oxo-1,4-dihydro-[1,8]naphthyridine-3-carboxylic acid] | 0.25 (≈ 0.594 µM) | 2 (≈ 4.75 µM) | 1 (≈ 2.38 µM) | 8 (≈ 19 µM) | 16 (≈ 38 µM) |  |  |  |  |  |  | 
CON=C1CN(c2nc3c(cc2F)c(=O)c(C(=O)O)cn3C2CC2)CCC1=CCN [Compound 61, 7-[4-(2-Amino-ethylidene)-3-methoxyimino-piperidin-1-yl]-1-cyclopropyl-6-fluoro-4-oxo-1,4-dihydro-[1,8]naphthyridine-3-carboxylic acid] | 0.12 (≈ 0.289 µM) | 1 (≈ 2.41 µM) |  | 16 (≈ 38.5 µM) |  |  |  |  |  |  |  | 
C/C(CN)=C1/CCCN(c2nc3c(cc2F)c(=O)c(C(=O)O)cn3-c2ccc(F)cc2F)C1 [Compound 381, (E)-7-[3-(2-Amino-1-methyl-ethylidene)-piperidin-1-yl]-1-(2,4-difluoro-phenyl)-6-fluoro-4-oxo-1,4-dihydro-[1,8]naphthyridine-3-carboxylic acid] | 0.5 (≈ 1.09 µM) | 4 (≈ 8.73 µM) | 4 (≈ 8.73 µM) | > 16 | > 16 |  |  |  |  |  |  | 
NCC(F)=C1CCN(c2cc3c(cc2F)c(=O)c(C(=O)O)cn3C2CC2)CC1 [Compound 208, 7-[4-(2-Amino-1-fluoro-ethylidene)-piperidin-1-yl]-1-cyclopropyl-6-fluoro-4-oxo-1,4-dihydro-quinoline-3-carboxylic acid] |  |  | 0.25 (≈ 0.642 µM) |  | 0.25 (≈ 0.642 µM) | 0.06 (≈ 0.154 µM) | 2 (≈ 5.14 µM) | 0.25 (≈ 0.642 µM) |  |  |  | 
O=C(O)c1cn(C2CC2)c2nc(N3CCC(=C(Cl)CN4CCCCC4)CC3)c(F)cc2c1=O [Compound 181, 7-[4-(1-Chloro-2-piperidin-1-yl-ethylidene)-piperidin-1-yl]-1-cyclopropyl-6-fluoro-4-oxo-1,4-dihydro-[1,8]naphthyridine-3-carboxylic acid] | 1 (≈ 2.11 µM) | 2 (≈ 4.21 µM) |  | > 16 | 8 (≈ 16.8 µM) |  |  |  |  |  |  | 
COc1c(N2CCC(=C(F)CNC(C)C)CC2)c(F)cc2c(=O)c(C(=O)O)cn(C3CC3)c12 [Compound 252, 1-Cyclopropyl-6-fluoro-7-[4-(i-fluoro-2-isopropylamino-ethylidene)-piperidin-1-yl]-8-methoxy-4-oxo-1,4-dihydro-quinoline-3-carboxylic Acid trifluoroacetic acid salt] | 0.5 | 1 |  | 8 | 4 |  |  |  |  |  |  | 
C[C@H]1COc2c(N3CC(=C(F)CN)C3)c(F)cc3c(=O)c(C(=O)O)cn1c23 [Compound 276, 9-[3-(2-Amino-1-fluoro-ethylidene)-azetidin-1-yl]-8-fluoro-(3S)-3-methyl-6-oxo-2,3-dihydro-6H-1-oxa-3a-aza-phenalene-5-carboxylic acid] | ≤ 0.015 | 0.25 (≈ 0.663 µM) | 0.5 (≈ 1.33 µM) | 2 (≈ 5.3 µM) | 4 (≈ 10.6 µM) |  |  |  |  |  |  | 
NCC(Cl)=C1CCN(c2nc3c(cc2F)c(=O)c(C(=O)O)cn3-c2ccc(F)cc2F)CC1 [Compound 271, 7-[4-(2-Amino-1-chloro-ethylidene)-piperidin-1-yl]-1-(2,4-difluoro-phenyl)-6-fluoro-4-oxo-1,4-dihydro-[1,8]naphthyridine-3-carboxylic acid] | ≤ 0.015 | 0.12 (≈ 0.251 µM) | 1 (≈ 2.09 µM) | 1 (≈ 2.09 µM) | 1 (≈ 2.09 µM) |  |  |  |  |  |  | 
NC/C(F)=C1/CCCN(c2nc3c(cc2F)c(=O)c(C(=O)O)cn3C2CC2)CC1 [Compound 496, (E)-7-[4-(2-Amino-1-fluoro-ethylidene)-azepan-1-yl]-1-cyclopropyl-6-fluoro-4-oxo-1,4-dihydro-[1,8]naphthyridine-3-carboxylic acid] | 0.25 (≈ 0.618 µM) | 1 (≈ 2.47 µM) |  | 0.25 (≈ 0.618 µM) | 16 (≈ 39.6 µM) |  |  |  |  |  |  | 
CNCC(Cl)=C1CCN(c2nc3c(cc2F)c(=O)c(C(=O)O)cn3C2CC2)CC1 [Compound 216, 7-[4-(1-Chloro-2-methylamino-ethylidene)-piperidin-1-yl]-1-cyclopropyl-6-fluoro-4-oxo-1,4-dihydro-[1,8]naphthyridine-3-carboxylic acid] |  |  |  |  |  | 0.06 (≈ 0.143 µM) | 2 (≈ 4.75 µM) | 0.25 (≈ 0.594 µM) | 0.12 (≈ 0.285 µM) | 1 (≈ 2.38 µM) |  | 
COc1c(N2CC(=C(Cl)CN)C2)c(F)cc2c(=O)c(C(=O)O)cn(C3CC3)c12 [Compound 189, 7-[3-(2-Amino-1-chloro-ethylidene)-azetidin-1-yl]-1-cyclopropyl-6-fluoro-8-methoxy-4-oxo-1,4-dihydro-quinoline-3-carboxylic acid] | < 0.12 | 2 (≈ 4.9 µM) | 4 (≈ 9.81 µM) | 2 (≈ 4.9 µM) | 4 (≈ 9.81 µM) |  |  |  |  |  |  | 
Cc1c(F)c(N2CCC(=C(Cl)CN)CC2)cc2c1c(=O)c(C(=O)O)cn2C1CC1 [Compound 263, 7-[4-(2-Amino-1-chloro-ethylidene)-piperidin-1-yl]-1-cyclopropyl-6-fluoro-5-methyl-4-oxo-1,4-dihydro-quinoline-3-carboxylic Acid] | 0.03 (≈ 0.0714 µM) | 0.12 (≈ 0.286 µM) | 0.5 (≈ 1.19 µM) | 1 (≈ 2.38 µM) | 0.5 (≈ 1.19 µM) |  |  |  |  |  |  | 
NC/C(Cl)=C1/CCCN(c2cc3c(cc2F)c(=O)c(C(=O)O)cn3C2CC2)CC1 [Compound 387, (E)-7-[4-(2-Amino-1-chloro-ethylidene)-azepan-1-yl]-1-cyclopropyl-6-fluoro-4-oxo-1,4-dihydro-quinoline-3-carboxylic acid] | 0.5 (≈ 1.19 µM) | 2 (≈ 4.76 µM) | > 16 | 16 (≈ 38.1 µM) | 16 (≈ 38.1 µM) |  |  |  |  |  |  | 
CNC/C(F)=C1/CCCN(c2c(F)cc3c(=O)c(C(=O)O)cn(C4CC4)c3c2OC)C1.Cl [Compound 453, (E)-1-Cyclopropyl-6-fluoro-7-[3-(1-fluoro-2-methylamino-ethylidene)-piperidin-1-yl]-8-methoxy-4-oxo-1,4-dihydro-quinoline-3-carboxylic Acid Hydrochloride Salt] | 0.06 | 0.25 |  | 4 | 2 |  |  |  |  |  |  | 
CNCC(F)=C1CN(c2c(F)cc3c(=O)c(C(=O)O)cn(-c4nc(N)c(F)cc4F)c3c2Cl)C1 [Compound 418, 1-(6-Amino-3,5-difluoro-pyridin-2-yl)-8-chloro-6-fluoro-7-[3-(1-fluoro-2-methylamino-ethylidene)-azetidin-1-yl]-4-oxo-1,4-dihydro-quinoline-3-carboxylic acid] | 0.06 (≈ 0.121 µM) | 1 (≈ 2.01 µM) | 16 (≈ 32.1 µM) | > 16 | 16 (≈ 32.1 µM) |  |  |  |  |  |  | 
NC/C(F)=C1/CCCN(c2c(F)c(N)c3c(=O)c(C(=O)O)cn(C4CC4)c3c2F)C1 [Compound 456, 5-Amino-7-[(E)-3-(2-amino-1-fluoro-ethylidene)-piperidin-1-yl]-1-cyclopropyl-6,8-difluoro-4-oxo-1,4-dihydro-quinoline-3-carboxylic Acid] | ≤ 0.015 | 0.03 (≈ 0.071 µM) | 0.06 (≈ 0.142 µM) | 0.12 (≈ 0.284 µM) | 0.12 (≈ 0.284 µM) |  |  |  |  |  |  | 
NC/C=C1\CCCN(c2nc3c(cc2F)c(=O)c(C(=O)O)cn3C2CC2)C1 [Compound 376, (E)-7-[3-(2-Amino-ethylidene)-piperidin-1-yl]-1-cyclopropyl-6-fluoro-4-oxo-1,4-dihydro-[1,8]naphthyridine-3-carboxylic acid] | 0.25 (≈ 0.671 µM) | 1 (≈ 2.69 µM) |  | > 16 | > 16 |  |  |  |  |  |  | 
CC(C)NCC(Cl)=C1CCN(c2cc3c(cc2F)c(=O)c(C(=O)O)cn3C2CC2)CC1 [Compound 248, 7-[4-(1-Chloro-2-isopropylamino-ethylidene)-piperidin-1-yl]-1-cyclopropyl-6-fluoro-4-oxo-1,4-dihydro-quinoline-3-carboxylic acid] | 0.5 (≈ 1.12 µM) | 2 (≈ 4.46 µM) |  | 16 (≈ 35.7 µM) | 4 (≈ 8.93 µM) |  |  |  |  |  |  | 
O=C(O)c1cn(C2CC2)c2nc(N3CCC(=CCO)CC3)c(F)cc2c1=O [Compound 163, 1-Cyclopropyl-6-fluoro-7-[4-(2-hydroxy-ethylidene)-piperidin-1-yl]-4-oxo-1,4-dihydro-[1,8]naphthyridine-3-carboxylic acid] | 0.12 (≈ 0.321 µM) | 1 (≈ 2.68 µM) | 4 (≈ 10.7 µM) | 4 (≈ 10.7 µM) |  |  |  |  |  |  |  | 
COc1c(N2CCC(=C(Cl)CNC(C)C)CC2)c(F)cc2c(=O)c(C(=O)O)cn(C3CC3)c12 [Compound 196, 7-[4-(1-Chloro-2-isopropylamino-ethylidene)-piperidin-1-yl]-1-cyclopropyl-6-fluoro-8-methoxy-4-oxo-1,4-dihydro-quinoline-3-carboxylic acid] | 0.12 (≈ 0.251 µM) | 0.5 (≈ 1.05 µM) |  | 4 (≈ 8.37 µM) | 2 (≈ 4.18 µM) |  |  |  |  |  |  | 
CC1COc2c(N3CCC(=CCN)C(O)C3)c(F)cc3c(=O)c(C(=O)O)cn1c23 (stereo not drawn) [Compound 210, 9-[4-(2-Amino-ethylidene)-3-hydroxy-piperidin-1-yl]-8-fluoro-3-methyl-6-oxo-2,3-dihydro-6H-1-oxa-3a-aza-phenalene-5-carboxylic acid] | 8 (≈ 19.8 µM) | > 16 | 16 (≈ 39.7 µM) | 16 (≈ 39.7 µM) |  |  |  |  |  |  |  | 
CNCC(Cl)=C1CCN(c2c(F)cc3c(=O)c(C(=O)O)cn(C4CC4)c3c2OC)CC1 [Compound 72, 7-[4-(1-Chloro-2-methylamino-ethylidene)-piperidin-1-yl]-1-cyclopropyl-6-fluoro-8-methoxy-4-oxo-1,4-dihydroquinoline-3-carboxylic Acid Trifluoroacetic Acid Salt] |  |  | 0.25 | 0.5 | 0.25 |  |  |  |  |  | 0.03 | 0.12
